Measured values: publication PMC7530128 (Journal of the American Chemical Society, 2020)

T1: CblD (Homo sapiens, UniProt Q9H3L0)
T1 sequence (Q9H3L0 1-296): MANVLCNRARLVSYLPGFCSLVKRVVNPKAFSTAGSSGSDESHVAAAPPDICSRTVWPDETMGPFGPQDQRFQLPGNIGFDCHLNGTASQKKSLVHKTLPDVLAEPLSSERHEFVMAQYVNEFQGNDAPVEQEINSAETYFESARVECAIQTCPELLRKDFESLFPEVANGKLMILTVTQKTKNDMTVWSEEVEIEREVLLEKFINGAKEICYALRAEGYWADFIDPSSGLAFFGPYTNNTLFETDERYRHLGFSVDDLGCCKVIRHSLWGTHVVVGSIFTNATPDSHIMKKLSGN

T2: CblC (Homo sapiens, UniProt Q9Y4U1)
T2 chain: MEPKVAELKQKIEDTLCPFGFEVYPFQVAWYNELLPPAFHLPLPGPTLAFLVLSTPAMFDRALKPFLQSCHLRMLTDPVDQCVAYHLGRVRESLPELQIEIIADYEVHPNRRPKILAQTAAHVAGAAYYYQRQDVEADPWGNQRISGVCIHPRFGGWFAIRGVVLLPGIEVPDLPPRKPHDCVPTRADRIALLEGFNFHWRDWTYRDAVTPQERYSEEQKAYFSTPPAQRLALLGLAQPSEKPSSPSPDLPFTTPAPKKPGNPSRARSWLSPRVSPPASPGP


What was measured:
CblD = biological target: T1, CblD; assay: UV-visible titration; format: binding
CblC = biological target: T2, CblC; assay: ITC

Row | Kd (CblC) | Molecule | Kd (CblD)
1 |  | H2OCbl | 1000 ± 400 nM
2 | 40 nM | CblD (protein, cobalamin) SDESHVAAAPPDICSRTVWPDETMGPFGPQDQRFQLPGNIGFDCHLNGTASQKKSLVHKTLPDVLAEPLSSERHEFVMAQYVNEFQGNDAPVEQEINSAETYFESARVECAIQTCPELLRKDFESLFPEVANGKLMILTVTQKTKNDMTVWSEEVEIEREVLLEKFINGAKEICYALRAEGYWADFIDPSSGLAFFGPYTNNTLFETDERYRHLGFSVDDLGCCKVIRHSLWGTHVVVGSIFTNATPDSHIMKKLSGN | 
